Test results as given in patent US20140296146A1, “Thermostable Inhibitors of Activation of the Blood Clotting System Through Contact with Foreign Surfaces” (Synapse B.V., priority 2011, published 2014).

Key:
[1] = TICA1: dependence of activity on disulfides (FIG. 5); conditions: relative to TICA1 with 3 disulfides = 100%
From the text: FIG. 5: Thermostable Inhibitor of Coagulation Activation (TICA1): Dependence on Disulfides.

[2] = TICA1 Ala-scan with intact disulfides, activity vs TICA1; conditions: single amino acid substituted by alanine
From the text: Every single amino acid was substituted by alanine except for cysteine. […] See also FIG. 6.

contact activation = assay: CAT assay at 0 pM TF on PPP from blood collection tubes with TICA added to tube or to assay; assay type: biochemical, human
Experimental: In 12 donors blood was drawn with 7 different drawing tubes with and without addition of TICA1 in the drawing tubes (total 14 tubes; 78 ml). After preparing PPP from these tubes, CAT measurements with MP reagent and pplow reagent was performed. One donor is measured in one plate. (pplow duplicate; MP duplicate; calibrator in 4 fold. Total volume is 320 μl sample/measurement in total 88 wells/donor.
In 12 donors blood is taken with the following commercial available drawing tubes: (From all blooddrawing tubes one tube with and one tube without TICA will be used to draw blood)
Final TICA concentration after blood drawing in every tube with added TICA is 30 μg/ml whole blood.
Final TICA concentration in plasma after preparing PPP is 60 μg/ml (assuming an hematocit of 50%)
CAT measurements with MP reagent and pplow reagent will be performed. One donor is measured in one plate. PPLow duplicate; MP duplicate; calibrator in 4 fold.
Total volume is 320 μl sample/measurement in total 88 wells/donor. NP2012 is also included in the measurement in 4 fold.
Lag times, Endogenous thrombin potentials, and peak height were recorded, For the current conditions of thrombin generation, peak height is the preferred parameter for interpretation of the results.
Plasma with TICA added: concentration in plasma: 60 μg/ml
Stock TICA: 1.5 mg/ml=>1500 μg/ml
20 μl TICA (stock: 1500 μg/ml) is added to 480 μl plasma.

h-FXIIa [3] = target: T1, h-FXIIa (human, UniProt P00748 20-615); assay: S2302 hydrolysis by h-FXIIa, fit of residual activity
T1 construct: also called factor XIIa
T1 sequence (looked up): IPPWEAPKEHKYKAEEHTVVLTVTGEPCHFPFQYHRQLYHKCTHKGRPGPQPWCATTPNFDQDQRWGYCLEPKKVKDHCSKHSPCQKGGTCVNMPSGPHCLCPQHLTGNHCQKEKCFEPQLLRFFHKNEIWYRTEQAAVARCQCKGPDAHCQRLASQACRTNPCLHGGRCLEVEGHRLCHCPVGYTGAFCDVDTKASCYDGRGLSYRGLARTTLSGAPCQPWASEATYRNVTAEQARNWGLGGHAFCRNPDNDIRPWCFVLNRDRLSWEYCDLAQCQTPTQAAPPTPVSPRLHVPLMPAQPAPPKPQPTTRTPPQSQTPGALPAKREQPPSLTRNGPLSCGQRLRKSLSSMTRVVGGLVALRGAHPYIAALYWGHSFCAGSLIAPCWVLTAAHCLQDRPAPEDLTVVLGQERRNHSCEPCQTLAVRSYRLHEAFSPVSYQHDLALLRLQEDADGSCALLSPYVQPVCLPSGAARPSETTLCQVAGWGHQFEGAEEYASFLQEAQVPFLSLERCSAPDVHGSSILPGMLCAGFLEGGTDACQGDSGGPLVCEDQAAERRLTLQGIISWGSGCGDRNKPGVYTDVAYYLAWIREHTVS
Experimental: (§1) Stock FXIIa was diluted 700× in BSA5. The inhibitor was diluted in BSA5 as indicated. Wells contained 70 μl diluted FXIIa (5 nM final), 70 μl inhibitor and 20 μl S2302 (475 or 462.5 μM final). The reaction was started after 5 min heating on the heating plate with S2302. Filters 405 nm and 490 nm reference. Found mΔA/min was multiplied by 2.14 to get the figure for a 1 cm path.
in which E=[FXIIa], Ki is the dissociation constant, I=[Inhibitor], kcat and Km are Michaelis constants and S=[S2302].

h-FXIIa [4] = target: T1, h-FXIIa; assay: S2302 hydrolysis by h-FXIIa (5.01 nM); inhibitor kept at -80° C.
Experimental: as §1, with “ΔmA/min” for “mΔA/min”

h-FXIIa [5] = target: T1, h-FXIIa; assay: S2302 hydrolysis by h-FXIIa (5.01 nM); inhibitor at RT during 72 hrs
Experimental: as §1, with “ΔmA/min” for “mΔA/min”

h-FXIIa [6] = target: T1, h-FXIIa; assay: S2302 hydrolysis by h-FXIIa (5.01 nM); inhibitor at RT during 72 hrs, against -80° C.
Experimental: as §1, with “ΔmA/min” for “mΔA/min”

h-FXIIa [7] = target: T1, h-FXIIa; assay: S2302 hydrolysis by h-FXIIa (5.01 nM); inhibitor 30 min 95° C.
Experimental: as §1, with “ΔmA/min” for “mΔA/min”

[8] = TICA added to CAT assay, 60 μg/ml in plasma
[9] = TICA added to Tube, 30 μg/ml whole blood

CC[C@H](C)[C@@H]1NC(=O)[C@H](CCCNC(=N)N)NC(=O)[C@@H]2CCCN2C(=O)[C@@H](NC(=O)[C@@H](NC(=O)[C@@H](N)CCCNC(=N)N)C(C)C)CSSC[C@@H]2NC(=O)[C@H](CCC(=O)O)NC(=O)[C@H](C)NC(=O)[C@H](CC(C)C)NC(=O)[C@@H]3CSSC[C@@H](C(=O)NCC(=O)O)NC(=O)[C@H](Cc4ccc(O)cc4)NC(=O)CNC(=O)[C@H](Cc4c[nH]cn4)NC(=O)[C@H](CCC(=O)O)NC(=O)[C@H](CC(C)C)NC(=O)[C@H](CSSC[C@H](NC(=O)[C@H](CCCCN)NC(=O)[C@H](CCSC)NC(=O)[C@H](CC(C)C)NC1=O)C(=O)N[C@@H](CCCCN)C(=O)N[C@@H](CCCCN)C(=O)N[C@@H](CC(=O)O)C(=O)N[C@@H](CO)C(=O)N[C@@H](CC(=O)O)C(=O)N3)NC(=O)[C@H](C(C)C)NC2=O [TICA1]
activity [1]: 100%
Activity vs TICA1 [2]: 100%
BD Glass 0 pM TF ETP (nM IIa · min) (contact activation; [8]): 760 ± 526 nM IIa · min
BD Glass 0 pM TF Lagtime (min) (contact activation; [8]): 38.8 ± 34.8 min
BD Glass 0 pM TF Peak Height (nM IIa) (contact activation; [8]): 105 ± 81 nM IIa
BD Plastic 0 pM TF ETP (nM IIa · min) (contact activation; [8]): 614 ± 538 nM IIa · min
BD Plastic 0 pM TF Lagtime (min) (contact activation; [8]): 49.5 ± 37.7 min
BD Plastic 0 pM TF Peak Height (nM IIa) (contact activation; [8]): 86 ± 87 nM IIa
Greiner 0 pM TF ETP (nM IIa · min) (contact activation; [8]): 834 ± 449 nM IIa · min
Greiner 0 pM TF Lagtime (min) (contact activation; [8]): 31.2 ± 26.7 min
Greiner 0 pM TF Peak Height (nM IIa) (contact activation; [8]): 110 ± 70 nM IIa
Heamtech 0 pM TF ETP (nM IIa · min) (contact activation; [8]): 666 ± 552 nM IIa · min
Heamtech 0 pM TF Lagtime (min) (contact activation; [8]): 46.4 ± 39.7 min
Heamtech 0 pM TF Peak Height (nM IIa) (contact activation; [8]): 93 ± 85 nM IIa
Sarstedt 0 pM TF ETP (nM IIa · min) (contact activation; [8]): 279 ± 227 nM IIa · min
Sarstedt 0 pM TF Lagtime (min) (contact activation; [8]): 50.0 ± 38.0 min
Sarstedt 0 pM TF Peak Height (nM IIa) (contact activation; [8]): 26 ± 23 nM IIa
Terumo 0 pM TF ETP (nM IIa · min) (contact activation; [8]): 276 ± 367 nM IIa · min
Terumo 0 pM TF Lagtime (min) (contact activation; [8]): 64 ± 40.6 min
Terumo 0 pM TF Peak Height (nM IIa) (contact activation; [8]): 33 ± 50 nM IIa
BD Glass 0 pM TF ETP (nM IIa · min) (contact activation; [9]): 77 ± 119 nM IIa · min
BD Glass 0 pM TF Lagtime (min) (contact activation; [9]): 76.6 ± 34.0 min
BD Glass 0 pM TF Peak Height (nM IIa) (contact activation; [9]): 6 ± 9 nM IIa
BD Plastic 0 pM TF ETP (nM IIa · min) (contact activation; [9]): 20 ± 61 nM IIa · min
BD Plastic 0 pM TF Lagtime (min) (contact activation; [9]): 90.1 ± 26.8 min
BD Plastic 0 pM TF Peak Height (nM IIa) (contact activation; [9]): 2 ± 6 nM IIa
Greiner 0 pM TF ETP (nM IIa · min) (contact activation; [9]): 144 ± 164 nM IIa · min
Greiner 0 pM TF Lagtime (min) (contact activation; [9]): 65.0 ± 34.8 min
Greiner 0 pM TF Peak Height (nM IIa) (contact activation; [9]): 11 ± 13 nM IIa
Heamtech 0 pM TF ETP (nM IIa · min) (contact activation; [9]): 289 ± 420 nM IIa · min
Heamtech 0 pM TF Lagtime (min) (contact activation; [9]): 65.0 ± 34.8 min
Heamtech 0 pM TF Peak Height (nM IIa) (contact activation; [9]): 36 ± 62 nM IIa
Sarstedt 0 pM TF ETP (nM IIa · min) (contact activation; [9]): 140 ± 106 nM IIa · min
Sarstedt 0 pM TF Lagtime (min) (contact activation; [9]): 52.5 ± 36.2 min
Sarstedt 0 pM TF Peak Height (nM IIa) (contact activation; [9]): 10 ± 8 nM IIa
Terumo 0 pM TF ETP (nM IIa · min) (contact activation; [9]): 59 ± 119 nM IIa · min
Terumo 0 pM TF Lagtime (min) (contact activation; [9]): 75.7 ± 35.6 min
Terumo 0 pM TF Peak Height (nM IIa) (contact activation; [9]): 5 ± 11 nM IIa

B1: Corn trypsin inhibitor (other, UniProt P01088 29-138, looked up)
chain: SAGTSCVPGWAIPHNPLPSCRWYVTSRTCGIGPRLPWPELKRRCCRELADIPAYCRCTALSILMDGAIPPGPDAQLEGRLEDLPGCPREVQRGFAATLVTEAECNLATIS
notes: also called CTI
Ki (h-FXIIa [3]): 2.9 nM
Ki (h-FXIIa [4]): 3.59 nM
Ki (h-FXIIa [5]): 4.19 nM
Res. Act. (%) (h-FXIIa [6]): 86%
Ki (h-FXIIa [7]): 5.1 nM
